The values that follow come from ChEMBL document CHEMBL1201862, “PubChem BioAssay data set” (2004).

Where “and” joins values, the source holds several entries; their conditions need not be identical. Equal entries are not always repeated.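 These data come from cells grown in 96-well plates and exposed to compound for 48 hours at five concentrations. GI50 is the concentration that inhibits growth by half.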 Calls of active or inactive are those of the source. No stated cut-off is given here; in the data, active = GI50 up to about 1.1 µM and inactive = higher.

What all share (experiment): NCI anticancer screen, dose series, 48 h
For test [1], the system named is NCI-H226.
Test [2] relates to SF-539.
Test [3] relates to EKVX.
The subject of test [4] is SN12C.
Test [5] has as its system 786-0.
The subject of test [6] is HL-60.
Test [7] relates to SK-MEL-2.
For test [8], the system named is NCI/ADR-RES.
The subject of test [9] is CAKI-1.
Test [10] relates to IGROV-1.
Test [11] has as its system A549.
The subject of test [12] is TK-10.
For test [13], the system named is Malme-3M.
Test [14] relates to SF-268.
Test [15] deals with MOLT-4.
Test [16] relates to Hs-578T.
For test [17], the system named is LOX IMVI.
For test [18], the system named is RPMI-8226.
Test [19] concerns MDA-N.

With `COc1ccc(NC(=S)NN=C(C)c2cccc(C(C)=NNC(=S)Nc3ccc(OC)cc3)n2)cc1`, the GI50 was 47.9 µM (inactive) in test [1]; 16.4 µM (inactive) in test [2]; > 100 µM (inactive) in test [3]; > 100 µM (inactive) in test [4]; 14.7 µM (inactive) in [5]; 20.5 µM (inactive) in test [6]. The GI50 was > 100 µM (inactive) in [7]; 8.59 µM (inactive) in test [8]; 11.4 µM (inactive) in [9]; 0.857 µM (active) in test [10]; 23.7 µM (inactive) in test [11]; 58.2 µM (inactive) in test [12]. Also, the GI50 in test [13] is 13.4 µM (inactive); in [14], > 100 µM (inactive); in [15] it was 8.55 µM (inactive); in [16] it was > 100 µM (inactive); in test [17], 13.6 µM (inactive); in [18], > 100 µM (inactive).

For the molecule `NC(CC(=O)OCc1ccccc1)C(=O)OCc1ccccc1` (configuration not stated), the GI50 in test [2], in test [3], in [4], in test [5], in test [7] and in [8] was > 100 µM (inactive) each time. Besides, the GI50 was 63.1 µM (inactive) in [9]; > 100 µM (inactive) in test [10]; > 100 µM (inactive) in [11]; > 100 µM (inactive) in [12]; > 100 µM (inactive) in test [14]; 60.4 µM (inactive) in test [16]. Further, the GI50 in [17], in test [19] and in test [18] was > 100 µM (inactive) throughout.

On to `CCOC(=O)C(=CNC(=S)c1ccncc1)C(=O)OCC`, for which the GI50 in test [2], in [3], in test [4], in test [5], in test [6] and in test [7] was > 100 µM (inactive) throughout. Also, the GI50 in [9], in [10], in test [11], in test [12], in test [13] and in test [14] was > 100 µM (inactive) throughout. The GI50 in test [15], in test [16], in test [17], in test [19] and in test [18] was > 100 µM (inactive) each time.

Consider `CC(=O)OC1OC(C2c3cccc(O)c3C(=O)c3c(O)cc(CO)cc32)C(O)C(O)C1O` (configuration not stated), for which the GI50 in test [2] is 2 µM (inactive) and 1.95 µM (inactive); in test [3] it was 3.78 µM (inactive) and 2.64 µM (inactive); in [4] it was 7.11 µM (inactive) and 5.35 µM (inactive); in test [5], 4.18 µM (inactive) and 4.13 µM (inactive); in test [6], 2.32 µM (inactive) and 2 µM (inactive); in test [7], 2.32 µM (inactive) and 2.74 µM (inactive). For the same molecule, the GI50 was 3.88 µM (inactive) and 2.93 µM (inactive) in test [8]; 2.78 µM (inactive) and 2.23 µM (inactive) in test [9]; 4.14 µM (inactive) and 3.87 µM (inactive) in test [10]; 2.8 µM (inactive) and 5.56 µM (inactive) in [11]; 5.69 µM (inactive) and 5.81 µM (inactive) in [12]; 4.39 µM (inactive) and 3.45 µM (inactive) in test [13]. Moreover, the GI50 in [14] is 4.97 µM (inactive) and 5.77 µM (inactive); in test [15], 4.13 µM (inactive) and 4.58 µM (inactive); in test [16], 2.31 µM (inactive) and 2.22 µM (inactive); in test [17], 2.87 µM (inactive) and 3.03 µM (inactive); in test [19] it was 3.74 µM (inactive) and 3.13 µM (inactive).
